Eight molecules from patent US5861414A, “Piperidineacetic acid derivatives useful as fibrinogen antagonist agent” (priority 1994, dated 1999) can be followed below.

The assay deals with human washed and resuspended platelets (HRP). Put plainly: Inhibition of U-46619-induced platelet aggregation in washed human platelets (turbidometric, Born-type aggregometer). In kind it is cell-based. Particulars: read-out: IC50, concentration of the compound required to inhibit platelet aggregation by 50%. The method, then:
Inhibition of platelet aggregation by compounds of the invention was determined according to the following procedure. […] The blood was treated with aspirin (0.1 mM) and prostacyclin (0.06 μM) prior to centrifugation (1400 g, 4 minutes, 20° C.). The supernatant platelet-rich plasma (PRP) was isolated and further centrifuged (1400 g, 10 minutes, 20° C.) to sediment the platelets. […] This platelet suspension was centrifuged (1400 g, 8 minutes, 20° C.) and the resultant platelet pellet was resuspended into the physiological salt solution adjusted to pH 7.4. The resultant washed-platelet preparation was diluted to give a final platelet count of […]. […] Platelet aggregation was quantified using a turbidometric method.

Setting [1] is: Homo sapiens, Platelet, washed human platelets, 37° C, 5 minutes pre-incubation, agonist 1 μM U-46619, fibrinogen 0.5 mg/ml.

Counter-ions that a name gives are not always drawn. Like-named read-outs stand apart in the source and are kept apart here.

As for `O=C(O)CN1CCC(c2n[nH]c3cc(/C=C/C4CCNCC4)ccc23)CC1` [2 (ii), {4-[6-(2-Piperidin-4-yl-(E)-vinyl)-1H-indazol-3-yl]-piperidin-1-yl}-aceticacid trifluoroacetate], the IC50 under setting [1] amounted to 92 nM.

As to `O=C(O)CN1CCC(c2nn(Cc3ccc(F)cc3)c3cc(/C=C/C4CCNCC4)ccc23)CC1` [1 (xiii), {4-[1-(4-Fluoro-benzyl)-6-(2-piperidin-4-yl-(E)-vinyl)-1H-indazol-3-yl]-piperidin-1-yl}-acetic acid trifluoroacetate], under setting [1], the IC50 was found to be 126 nM.

Turning to `O=C(O)CN1CCC(c2n[nH]c3cc(/C=C/C4CCNCC4)ccc23)CC1` [2 (iv), {4-[6-(2-Piperidin-4-yl-(E)-vinyl)-1H-indazol-3-yl]-piperidin-1-yl}-aceticacid, hydrochloride hydrate], the IC50 (Homo sapiens, Platelet) came out at 67 nM.

For the molecule `O=C(O)CN1CCC(c2nn(Cc3ccc(Cl)c(Cl)c3)c3cc(/C=C/C4CCNCC4)ccc23)CC1` [3 (ii), {4-[1-(3,4-Dichloro-benzyl)-6-(2-piperidin-4-yl-(E)-vinyl)-1H-indazol-3-yl]-piperidin-1-yl}-acetic acid trifluoroacetate], the IC50 under setting [1] is 74 nM.

As to `O=C(O)CN1CCC(c2nn(Cc3ccccc3)c3cc(/C=C/C4CCNCC4)ccc23)CC1` [7 (ii), {4-[1-Benzyl-6-(2-piperidin-4-yl-(E)-vinyl)-1H-indazol-3-yl]-piperidin-1-yl}-acetic acid trifluoroacetate], under setting [1], the IC50 was found to be 107 nM.

With `O=C(O)CN1CCC(c2nn(Cc3ccc(Cl)cc3)c3cc(CCC4CCNCC4)ccc23)CC1` [5 (iii), {4-[1-(4-Chloro-benzyl)-6-(2piperidin-4-yl-ethyl)-1H-indazol-3-yl-piperidin-1-yl}-acetic acid trifluoroacetate], the IC50 under setting [1] stood at 80 nM.

As for `O=C(O)CN1CCC(c2nn(Cc3ccc(F)cc3)c3cc(/C=C/C4CCNCC4)ccc23)CC1` [6 (ii), {4-[1-(4-Fluoro-benzyl)-6-(2-piperidin-4-yl-(E)-vinyl)-1H-indazol-3-yl]-piperidin-1-yl}-acetic acid hydrochloride], where the note is “washed human platelets, 37° C, 5 minutes pre-incubation, agonist 1 μM U-46619, fibrinogen 0.5 mg/ml, hydrochloride”, the IC50 amounted to 110 nM.

For the molecule `O=C(O)CN1CCC(c2nn(Cc3ccc(Cl)cc3)c3cc(/C=C/C4CCNCC4)ccc23)CC1` [4 (ii), (4-{1-(4-Chloro-benzyl)-6-[2-piperidin-4-yl-(E)-vinyl]-1H-indazol-3-yl}-piperidin-1-yl)-acetic acid trifluoroacetate], the IC50 under setting [1] turned out to be 72 nM.
